The structures appear in SMILES notation. Where only a bound is given, the exact number is not on record here.

Assay [1] addresses T1, GlunN1/GluN2A glutamate receptors (Homo sapiens, UniProt Q05586+Q12879).
T1 construct: expressed in transfected cells
Description: Whole-cell patch clamp of mammalian cells (Ionworks Barracuda, IWB), NMDA potentiation (PAM), GluN2A. Type of assay: cell-based. Particulars: peak current amplitude; for GluN2A PCA IWB Ephys % potentiation at 3 μM: 3 μM test compound, co-application with EC20 L-glutamate and 30 μM glycine; for EC50: 8-point concentration-response, read-out: GluN2A PCA EC50; for Emax: maximal potentiation, read-out: GluN2A PCA Emax (%). The procedure:
(§1) NMDA potentiation in mammalian cells which expressed NMDA receptors was assessed using the whole cell patch clamp to determine the PAM activity of compounds as described below. An automatic patch-clamp system can be used determine the […] activity of compounds as described below.
(§2) The whole-cell patch-clamp technique was used to investigate the effects of positive allosteric modulating activity of test compounds on GlunN1/GluN2A and GluN2B glutamate receptors expressed in mammalian cells.
HEK293 cells were transformed with adenovirus 5 DNA and transfected with cDNA encoding the human GRIN1/GRIN2A genes. Stable transfectants were selected using G418 and Zeocin-resistance genes incorporated into the expression plasmid and selection pressure maintained with G418 and Zeocin in the medium. Cells were cultured in Dulbecco's Modified Eagle Medium/Nutrient Mixture (D-MEM/F-12) supplemented with 10% fetal bovine serum, 100 μg/ml penicillin G sodium, 100 μg/ml streptomycin sulphate, 100 μg/ml Zeocin, 5 μg/ml blasticidin and 500 μg/ml G418.
(§3) Test article effects were evaluated in 8-point concentration-response format (4 replicate wells/concentration). All test and control solutions contained 0.3% DMSO and 0.01% Kolliphor® EL (C5135, Sigma). The test article formulations were loaded in a 384-well compound plate using an automated liquid handling system (SciClone ALH3000, Caliper LifeSciences). The measurements were performed using Ion Works Barracuda platform following this procedure:
(§4) • a) Intracellular solution (mM): 50 mM CsCl, 90 mM CsF, 2 mM MgCl2, 5 mM EGTA, 10 mM HEPES. Adjust to pH 7.2 with CsOH. • b) Extracellular solution, HB-PS (composition in mM): NaCl, 137; KCl, 1.0; CaCl2, 5; HEPES, 10; Glucose, 10; pH adjusted to 7.4 with NaOH (refrigerated until use). • c) Holding potential: −70 mV, potential during agonist/PAM application: −40 mV. Recording Procedure: • a) Extracellular buffer will be loaded into the PPC plate wells (11 μL per well). Cell suspension will be pipetted into the wells (9 μL per well) of the PPC planar electrode. • b) Whole-cell recording configuration will be established via patch perforation with membrane currents recorded by on-board patch clamp amplifiers. • c) Two recordings (scans) will be performed. First, during pre-application of test article alone (duration of pre-application—5 min) and second, during test articles and agonist (EC20 L-glutamate and 30 μM glycine) co-application to detect positive modulatory effects of the test article.
(§5) Test Article Administration: The first pre-application will consist of the addition of 20 μL of 2× concentrated test article solution and, second, of 20 μL of 1× concentrated test article and agonist at 10 μL/s (2 second total application time).
(§6) Potentiating effect of positive allosteric modulators (PAM) on the channel will be calculated as % activation=(IPAM/IEC10-30)×100%−100% where IPAM will be the L-glutamate EC10-30-elicited current in presence of various concentrations of test articles and IEC20 will be the mean current elicited with L-glutamate EC20. PAM concentration-response data will be fitted to an equation of the form: % Activation=% L-glutamate EC20+{(% MAX−% L-glutamate EC20)/[1+([Test]/EC50)^N]} where [Test] will be the concentration of PAM (test article), EC50 will be the concentration of PAM producing half-maximal activation, N will be the Hill coefficient, % L-glutamate EC20 will be the percentage of the current Elicited with L-glutamate EC20, % MAX is the percentage of the current activated with the highest dose of PAM co-admitted with L-glutamate EC20 and % Activation will be the percentage of the current elicited with L-glutamate EC10-30 at each PAM concentration.
(§7) The maximal amplitude of the evoked currents are measured and defined as Peak Current Amplitude (PCA).

The target of assay [2] is T2, GluN2B glutamate receptors (Homo sapiens, UniProt Q05586+Q13224).
T2 construct: expressed in transfected cells
Description: Whole-cell patch clamp of mammalian cells (Ionworks Barracuda, IWB), NMDA potentiation (PAM), GluN2B. Particulars: peak current amplitude; for GluN2B PCA IWB Ephys % potentiation at 3 μM: 3 μM test compound, co-application with EC20 L-glutamate and 30 μM glycine; for EC50: 8-point concentration-response, read-out: GluN2B PCA EC50; for Emax: maximal potentiation, read-out: GluN2B PCA Emax (%). Type of assay: cell-based. The protocol:
as §1, §2, §3, §4, §5, §6, §7

T2 sequence (Q13224 27-1484, other chains not shown): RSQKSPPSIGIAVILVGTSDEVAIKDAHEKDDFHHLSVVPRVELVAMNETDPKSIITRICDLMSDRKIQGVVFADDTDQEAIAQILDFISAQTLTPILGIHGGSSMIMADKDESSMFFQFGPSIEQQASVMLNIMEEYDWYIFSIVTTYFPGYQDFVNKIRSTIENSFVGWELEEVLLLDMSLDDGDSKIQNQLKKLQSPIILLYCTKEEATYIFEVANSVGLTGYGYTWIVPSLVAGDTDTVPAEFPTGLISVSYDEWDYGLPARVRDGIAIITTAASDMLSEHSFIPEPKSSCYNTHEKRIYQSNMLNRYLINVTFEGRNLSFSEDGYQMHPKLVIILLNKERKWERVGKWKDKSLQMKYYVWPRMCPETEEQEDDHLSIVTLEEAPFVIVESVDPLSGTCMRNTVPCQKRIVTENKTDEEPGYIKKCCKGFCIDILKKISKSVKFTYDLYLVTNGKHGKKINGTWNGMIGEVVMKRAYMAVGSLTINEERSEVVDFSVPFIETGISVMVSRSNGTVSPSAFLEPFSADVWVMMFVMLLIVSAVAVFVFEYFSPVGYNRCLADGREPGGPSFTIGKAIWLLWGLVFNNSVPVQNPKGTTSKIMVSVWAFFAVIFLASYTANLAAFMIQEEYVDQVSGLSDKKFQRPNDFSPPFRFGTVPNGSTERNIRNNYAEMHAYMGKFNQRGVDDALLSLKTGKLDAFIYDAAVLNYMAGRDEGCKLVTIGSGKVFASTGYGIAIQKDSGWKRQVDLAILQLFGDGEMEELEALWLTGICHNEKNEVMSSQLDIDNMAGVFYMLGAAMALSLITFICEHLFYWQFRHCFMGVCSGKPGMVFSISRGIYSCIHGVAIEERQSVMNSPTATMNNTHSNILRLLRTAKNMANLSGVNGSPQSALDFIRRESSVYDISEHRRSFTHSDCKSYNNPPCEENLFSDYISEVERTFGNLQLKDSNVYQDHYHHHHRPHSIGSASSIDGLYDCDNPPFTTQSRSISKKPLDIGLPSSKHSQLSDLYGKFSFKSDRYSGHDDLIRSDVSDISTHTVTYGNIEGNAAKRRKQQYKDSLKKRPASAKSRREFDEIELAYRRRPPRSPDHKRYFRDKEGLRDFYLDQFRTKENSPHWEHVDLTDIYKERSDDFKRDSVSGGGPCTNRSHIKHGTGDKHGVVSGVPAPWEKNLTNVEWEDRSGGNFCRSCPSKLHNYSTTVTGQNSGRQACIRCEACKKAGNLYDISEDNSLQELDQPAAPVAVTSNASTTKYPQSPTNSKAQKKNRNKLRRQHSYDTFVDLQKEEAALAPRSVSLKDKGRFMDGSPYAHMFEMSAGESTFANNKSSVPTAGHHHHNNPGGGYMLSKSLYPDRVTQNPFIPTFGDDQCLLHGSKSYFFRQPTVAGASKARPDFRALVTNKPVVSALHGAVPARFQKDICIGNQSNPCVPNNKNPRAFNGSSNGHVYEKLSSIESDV
T1 sequence (Q12879 23-1464, other chains not shown): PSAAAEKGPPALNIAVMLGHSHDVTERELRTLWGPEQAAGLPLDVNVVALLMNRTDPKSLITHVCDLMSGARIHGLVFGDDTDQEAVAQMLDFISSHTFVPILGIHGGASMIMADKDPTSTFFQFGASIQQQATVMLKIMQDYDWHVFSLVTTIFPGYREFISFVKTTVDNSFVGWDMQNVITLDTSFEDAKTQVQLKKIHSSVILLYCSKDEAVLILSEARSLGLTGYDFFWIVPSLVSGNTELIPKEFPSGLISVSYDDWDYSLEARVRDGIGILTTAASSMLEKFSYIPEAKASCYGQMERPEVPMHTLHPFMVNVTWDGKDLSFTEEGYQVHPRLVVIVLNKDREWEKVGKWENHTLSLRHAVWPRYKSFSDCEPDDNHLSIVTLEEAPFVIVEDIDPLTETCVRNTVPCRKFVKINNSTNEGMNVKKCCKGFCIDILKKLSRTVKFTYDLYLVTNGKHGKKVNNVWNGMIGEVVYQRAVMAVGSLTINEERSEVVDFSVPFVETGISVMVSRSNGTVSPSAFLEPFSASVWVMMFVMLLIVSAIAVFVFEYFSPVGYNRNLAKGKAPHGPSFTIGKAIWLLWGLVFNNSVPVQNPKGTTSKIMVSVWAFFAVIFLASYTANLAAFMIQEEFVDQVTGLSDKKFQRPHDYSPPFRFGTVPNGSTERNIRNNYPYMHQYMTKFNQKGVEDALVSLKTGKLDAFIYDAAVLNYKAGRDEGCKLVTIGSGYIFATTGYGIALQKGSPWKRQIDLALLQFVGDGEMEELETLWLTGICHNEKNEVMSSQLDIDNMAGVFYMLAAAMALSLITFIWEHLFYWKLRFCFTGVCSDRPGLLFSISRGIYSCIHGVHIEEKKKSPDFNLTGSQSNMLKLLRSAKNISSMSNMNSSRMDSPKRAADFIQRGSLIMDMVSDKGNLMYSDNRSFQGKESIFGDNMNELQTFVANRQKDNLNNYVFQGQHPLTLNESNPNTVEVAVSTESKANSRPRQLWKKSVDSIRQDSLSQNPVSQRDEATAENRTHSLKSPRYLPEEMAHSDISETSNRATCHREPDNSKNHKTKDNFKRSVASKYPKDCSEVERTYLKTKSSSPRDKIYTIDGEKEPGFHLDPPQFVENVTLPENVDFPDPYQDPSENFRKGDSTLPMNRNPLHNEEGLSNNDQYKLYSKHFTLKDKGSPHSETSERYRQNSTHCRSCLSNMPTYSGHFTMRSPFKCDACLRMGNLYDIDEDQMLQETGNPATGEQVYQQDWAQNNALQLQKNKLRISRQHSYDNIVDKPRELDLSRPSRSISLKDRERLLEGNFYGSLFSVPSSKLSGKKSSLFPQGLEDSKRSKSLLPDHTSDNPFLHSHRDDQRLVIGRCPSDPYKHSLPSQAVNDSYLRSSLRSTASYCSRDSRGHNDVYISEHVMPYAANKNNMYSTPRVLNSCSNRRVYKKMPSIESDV

Regarding `C[C@H](CCC(C)(C)O)[C@H]1CC[C@H]2[C@@H]3CC[C@H]4C[C@@](C)(O)CC[C@]4(C)[C@H]3C(=O)C[C@]12C` [Compound 1], in assay [1], the “GluN2A PCA IWB Ephys % potentiation at 3 μM” value is given as “B (“B” indicates potentiation of >100%)”; the concentration for a half-maximal effect (EC50) – broadly, the midpoint of the concentration-response curve – was in the range of 500 to 1000 nM; the maximal effect (Emax) (commonly the greatest response seen or fitted, relative to the assay's reference) is 100 to 500%. In assay [2], the “GluN2B PCA IWB Ephys % potentiation at 3 μM” value is “B (“B” indicates potentiation of >100%)”, the 50% effective concentration (EC50) was in the range of 500 to 1000 nM and the Emax lay in the range of 100 to 500%.
Consider `C[C@H](CCC(C)(C)O)[C@H]1CC[C@H]2[C@@H]3CC[C@H]4C[C@@H](O)CC[C@]4(C)[C@H]3C(=O)C[C@]12C` [Compound 2], for which, in assay [1], the “GluN2A PCA IWB Ephys % potentiation at 3 μM” value is recorded as “A (“A” indicates % potentiation up to 100%)”, the EC50 is 1000 to 10000 nM and the Emax is less than 100%. Further, in assay [2], the “GluN2B PCA IWB Ephys % potentiation at 3 μM” value is “A (“A” indicates % potentiation up to 100%)”, the EC50 is 500 to 1000 nM and the maximal response (Emax) is less than 100%.
As to `C[C@H](CCC(C)(C)O)[C@H]1CC[C@H]2[C@@H]3CC=C4C[C@@H](O)CC[C@]4(C)[C@H]3[C@@H](O)C[C@]12C` [Compound 3], in assay [1], the “GluN2A PCA IWB Ephys % potentiation at 3 μM” value is listed as “A (“A” indicates % potentiation up to 100%)”, the EC50 was no less than 10000 nM and the Emax was less than 100%. In assay [2], the “GluN2B PCA IWB Ephys % potentiation at 3 μM” value is recorded as “B (“B” indicates potentiation of >100%)”, the EC50 is 500 to 1000 nM and the maximal response (Emax) lay in the range of 100 to 500%.
Take `C[C@H](CCC(C)(C)O)[C@H]1CC[C@H]2[C@@H]3CC=C4C[C@@H](O)CC[C@]4(C)[C@H]3C(=O)C[C@]12C` [Compound 4]: in assay [1], the “GluN2A PCA IWB Ephys % potentiation at 3 μM” value was “B (“B” indicates potentiation of >100%)”, the EC50 was 100 to 500 nM and the maximal effect (Emax) lay in the range of 100 to 500%. Moreover, in assay [2], the “GluN2B PCA IWB Ephys % potentiation at 3 μM” value was “B (“B” indicates potentiation of >100%)”, the EC50 was in the range of 100 to 500 nM and the maximal response (Emax) lay within 100 to 500%.
As to `CC[C@]1(O)CC[C@@]2(C)C(=CC[C@H]3[C@@H]4CC[C@H]([C@H](C)CCC(C)(C)O)[C@@]4(C)CC(=O)[C@@H]32)C1` [Compound 5], in assay [1], the EC50 lay within 100 to 500 nM and the maximal effect (Emax) lay within 100 to 500%. Moreover, in assay [2], the half-maximal effective concentration (EC50) lay in the range of 100 to 500 nM and the maximum response (Emax) fell in the range of 100 to 500%.
Take `CC[C@]1(O)CC[C@@]2(C)C(=CC[C@H]3[C@@H]4CC[C@H]([C@H](C)CC[C@@H](O)C(C)C)[C@@]4(C)CC(=O)[C@@H]32)C1` [Compound 6]: in assay [1], the EC50 was in the range of 1 to 100 nM and the maximal response (Emax) was 100 to 500%. Also, in assay [2], the EC50 was in the range of 1 to 100 nM and the maximum response (Emax) was 100 to 500%.
On to `CC[C@]1(O)CC[C@@]2(C)C(=CC[C@H]3[C@@H]4CC[C@H]([C@H](C)CC[C@H](O)C(C)C)[C@@]4(C)CC(=O)[C@@H]32)C1` [Compound 7], for which, in assay [1], the EC50 lay in the range of 1 to 100 nM and the Emax lay in the range of 100 to 500%. Further, in assay [2], the 50% effective concentration (EC50) was in the range of 1 to 100 nM and the Emax lay in the range of 100 to 500%.
For the compound `CC[C@]1(O)CC[C@@]2(C)C(=CC[C@H]3[C@@H]4CC[C@H]([C@H](C)CC[C@H](O)C(C)(C)C)[C@@]4(C)CC(=O)[C@@H]32)C1` [Compound 9], the concentration for a half-maximal effect (EC50) in assay [1] and in assay [2] was 1 to 100 nM in each case. The Emax in assay [1] is greater than 500%; in assay [2], 100 to 500%.
`CC[C@]1(O)CC[C@@]2(C)C(=CC[C@H]3[C@@H]4CC[C@H]([C@H](C)CC[C@@H](O)C(C)(C)C)[C@@]4(C)CC(=O)[C@@H]32)C1` [Compound 10]: in assay [1], the concentration giving a half-maximal response (EC50) fell in the range of 1 to 100 nM and the Emax is greater than 500%. Also, in assay [2], the concentration for a half-maximal effect (EC50) lay in the range of 1 to 100 nM and the maximal response (Emax) was in the range of 100 to 500%.
With `C[C@H](CCC(C)(C)O)[C@H]1CC[C@H]2[C@@H]3CC=C4C[C@@](C)(O)CC[C@]4(C)[C@H]3C(C)(O)C[C@]12C` (some centres unmarked) [Compound 11], in assay [1], the “GluN2A PCA IWB Ephys % potentiation at 3 μM” value was “B (“B” indicates potentiation of >100%)”, the EC50 lay within 500 to 1000 nM and the Emax lay in the range of 100 to 500%. Further, in assay [2], the “GluN2B PCA IWB Ephys % potentiation at 3 μM” value was “B (“B” indicates potentiation of >100%)”, the half-maximal effective concentration (EC50) lay within 1000 to 10000 nM and the maximal effect (Emax) was 100 to 500%.

These data come from patent US11279730B2, “Oxysterols and methods of use thereof” (Sage Therapeutics, Inc., priority 2016, dated 2022).
